Patent US20070092879A1, “Fluoresence-based dna primase assays” (AstraZeneca AB, priority 2003, published 2007)

Molecular target: E. coli DNA primase (Escherichia coli, UniProt P0ABS5)
Experiment: Fluorescence-based E. coli DNA primase HTS assay in the presence of helicase (SYBR Green II)
Type: biochemical
Settings: for inhibition of primase activity: 50 mM salt
Description: The reaction was carried out on a Costar 384-well black plate. The reaction volume was 30 μl. The final concentrations in the reaction were 50 mM Tris-HCl, pH 7.5, 10 mM Mg(OAc)2, 10 mM DTT, 25 mM potassium glutamate, 0.003% Brij-35, 200 nM DNA, 25 nM helicase, 75 nM E. coli DNA primase, 200 μM ATP and 200 μM GTP. To perform the HTS assay, 2 μl of compound/DMSO solution or aqueous DMSO solution was incubated with 23 μl of a reaction premix at room temperature for 15 min. The reaction premix was a 1.3× concentrated reaction solution without NTPs. After the incubation, 5 μl of a substrate solution with 1.2 mM ATP and 1.2 mM GTP were added to initiate the reaction. The reaction was incubated at room temperature for 40 min. Then 25 μl of a 30×SYBR Green II solution with 1.2 M NaCl was added and the fluorescence was measured (excitation at 485 nm, emission at 535 nm).
A dideoxy NTP was used as a positive inhibitory control for the primase reaction. […] Since ddATP competes with NTP (ATP in this case) in the primase reaction, the IC50 value was dependent on the substrate (ATP) concentration. Under the HTS conditions used, the IC50 of ddATP was 10 μM

E. coli DNA primase, sequence (P0ABS5 whole entry): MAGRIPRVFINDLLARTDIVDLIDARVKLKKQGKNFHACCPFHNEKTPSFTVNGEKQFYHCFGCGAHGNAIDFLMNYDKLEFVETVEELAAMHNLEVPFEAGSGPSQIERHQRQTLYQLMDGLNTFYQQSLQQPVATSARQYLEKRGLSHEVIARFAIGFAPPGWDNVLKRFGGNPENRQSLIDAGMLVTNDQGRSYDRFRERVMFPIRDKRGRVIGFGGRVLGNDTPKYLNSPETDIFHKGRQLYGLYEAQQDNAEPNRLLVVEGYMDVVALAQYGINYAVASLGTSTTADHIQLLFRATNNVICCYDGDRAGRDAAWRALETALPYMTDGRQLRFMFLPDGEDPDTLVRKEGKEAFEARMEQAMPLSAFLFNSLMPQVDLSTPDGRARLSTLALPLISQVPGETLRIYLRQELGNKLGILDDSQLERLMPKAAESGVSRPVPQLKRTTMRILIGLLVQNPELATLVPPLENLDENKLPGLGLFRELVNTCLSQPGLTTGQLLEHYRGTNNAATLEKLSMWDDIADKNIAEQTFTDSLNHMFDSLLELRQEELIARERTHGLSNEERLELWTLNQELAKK

Row | Compound | inhibition of primase activity | also measured
1 | 5′-CTCTCTCTCTCTCTCTCTCTCTCTCTCTCTCTCTGCAAAGC-3′ [DNA7] |  | Km (DNA template concentration dependence, FIG. 5, read-out: apparent Km for DNA): 0.105 µM
2 | Nc1ncnc2c1ncn2[C@H]1CC[C@@H](COP(=O)(O)OP(=O)(O)OP(=O)(O)O)O1 [ddATP] |  | IC50 (HTS conditions, 200 μM ATP and 200 μM GTP, IC50 dependent on ATP concentration (competes with ATP), read-out: IC50 of inhibition of primase activity): 10 µM
3 | [Cl-].[K+] [KCl] | approximately 50% | 
4 | [Cl-].[Na+] [NaCl] | approximately 50% | 
